Values of other authors as cited in US20070003613A1, “Preparations to support maintenance of acid-alkaline balance in the human body and methods directed to using same” (priority 2005, published 2007).

Details: second dissociation

pH at which the second H+ ion is liberated: 9.6
SMILES: NCC(=O)O [glycine]
